This is an account of results in patent US7250433B2, “Tetrazole and oxadiazolone substituted β-amino acid derivatives” (Warner Lambert Company LLC, priority 2003, dated 2007).

Each structure is given as a SMILES string.

As to `CC(C)CCC[C@@H](C)CCC(CN)c1nnn[nH]1` (stereo partly drawn), the melting point (as a rule, the temperature of the solid-liquid transition) is 185 °C (dec.).
The figure for `NCC(CC1CCCCC1)c1nnn[nH]1` (stereo not drawn) is > 250 °C (dec.).
`CC(C)C(C)C(CN)c1nnn[nH]1` (stereo not drawn): the melting point is > 250 °C (dec.).
With `CCC(C(C)C)C(CN)c1nnn[nH]1` (stereo not drawn), the melting point was 205 °C (dec.).
Then `CC(CC1CCCC1)C(CN)c1nnn[nH]1` (stereo not drawn), with 194 °C (dec.); and `CC(CC1CCCCC1)C(CN)c1nnn[nH]1` (stereo not drawn), with 216 °C (dec.).
As to `CC(Cc1cccc(C(F)(F)F)c1)C(CN)c1nnn[nH]1` (stereo not drawn), the melting point was 163 °C (dec.).
Regarding `CC(CCc1ccccc1)C(CN)c1nnn[nH]1` (stereo not drawn), the melting point was 152 °C (dec.).
The figure for `CC(C)C1CC1(CN)c1nnn[nH]1` (stereo not drawn) is > 250 °C (dec.); for `CCC(CC)C1CC1(CN)c1nnn[nH]1` (stereo not drawn) it is > 250 °C (dec.); for `NCC1(C(=O)O)CC12CCCC2` (stereo not drawn) it is 231 to 235 °C (dec.).
Turning to `Cl.NCC1(c2noc(=O)[nH]2)CC12CCCC2` (stereo not drawn), the melting point lay within 206 to 208 °C.
The figure for `Cl.NCC1(c2noc(=O)[nH]2)CC12CCCCC2` (stereo not drawn) is 179 to 181 °C (dec.); for `CC(C)C1CC1(CN)C(=O)O.Cl` (stereo not drawn) it is 245 to 246 °C; for `CC(C)CC1CC1(CN)C(=O)O.Cl` (stereo not drawn) it is 254 to 255 °C.
The compound `CC(C)C1CC1(CN)c1noc(=O)[nH]1.Cl` (stereo not drawn) yielded a melting point of 178 to 179 °C.
The figure for `CC(C)CC1CC1(CN)c1noc(=O)[nH]1.Cl` (stereo not drawn) is 181 to 182 °C; for `CC(Cc1ccc(F)cc1)C(CN)c1nnn[nH]1` (stereo not drawn) [Example 26, 4-(4-Fluoro-phenyl)-3-methyl-2-(1H-tetrazol-5-yl)-butylamine] it is 186 °C (dec.).
